Reference: US20040162263A1, “Pharmaceutical formulations targeting specific regions of the gastrointesinal tract” (priority 2002, published 2004)
Values joined by “and” are separate entries in the source; they are usually repeats but may differ in a detail not shown here. Equal entries are not always repeated.

Test: Pharmacokinetics of decitabine in IVAP rabbit model
Assay type: in vivo, rabbits
Method: Decitabine was administered intravenously to IVAP rabbits (n=3) at three doses: 0.75, 1.5 and 2.5 mg/kg. It was also administered at 2.5mg/kg orally and through previously implanted intestinal and vascular access ports in the portal vein (PV), upper small intestine (USI), lower small intestine (LSI) and colon (IC). All routes received the same simple formulation of raw compound dissolved in cold saline. Care was taken to insure doses were delivered immediately (less than 15 minutes) after dissolving the powder and that the liquid formulation was kept on ice up to the time of administration. Blood samples were taken simultaneously from the median auricular artery and through a port in the portal vein at predetermined time points. Plasma was separated and kept frozen at −70° C. until shipped to Xenobiotic Laboratories for analysis.
Pharmacokinetic parameters were calculated using non-compartmental models with the Winnonlin v3.1 program.

[1] = IC 2.5 mg/kg, only two successful doses, individual values
[2] = IV 0.75 mg/kg, 2 min, 0.75 mg/kg
[3] = IV 0.75 mg/kg, 15 min, 0.75 mg/kg
[4] = IV 0.75 mg/kg, 60 min, 0.75 mg/kg
[5] = IV 0.75 mg/kg, 120 min, 0.75 mg/kg
[6] = IV 0.75 mg/kg, 240 min, 0.75 mg/kg
[7] = IV 1.5 mg/kg, 15 min, 1.5 mg/kg
[8] = IV 1.5 mg/kg, 60 min, 1.5 mg/kg
[9] = IV 1.5 mg/kg, 120 min, 1.5 mg/kg
[10] = IV 1.5 mg/kg, 180 min, 1.5 mg/kg

hepatic first pass effect loss ((AUCIV−AUCPV/AUCIV)×100) (2.5 mg/kg into portal vein): 32%
Individual systemic Bioavailability (IC 2.5 mg/kg): 68.29% and 0.22%
AUC0-inf in Portal Vein [1]: 2.98 ng·h/mL and 830 ng·h/mL
AUC0-inf in Systemic Samples [1]: 2.51 ng·h/mL and 773 ng·h/mL
CMAX (IC 2.5 mg/kg, two individual values): 2.0 ng/mL and 611 ng/mL
concentration PV, Mean (IV 0.75 mg/kg, 2 min): 624 ng/mL
concentration SYS, Mean (IV 0.75 mg/kg, 2 min): 628 ng/mL
concentration PV, individual [2]: 581 ng/mL and 621 ng/mL and 669 ng/mL
concentration SYS, individual [2]: 666 ng/mL and 615 ng/mL and 603 ng/mL
concentration SYS, Mean (IV 0.75 mg/kg, 5 min): 422 ng/mL
concentration SYS, individual (IV 0.75 mg/kg, 5 min, 0.75 mg/kg): 432 ng/mL and 415 ng/mL and 419 ng/mL
concentration PV, Mean (IV 0.75 mg/kg, 15 min): 229 ng/mL
concentration SYS, Mean (IV 0.75 mg/kg, 15 min): 247 ng/mL
concentration PV, individual [3]: 233 ng/mL (2×) and 220 ng/mL
concentration SYS, individual [3]: 257 ng/mL and 233 ng/mL and 250 ng/mL
concentration SYS, Mean (IV 0.75 mg/kg, 30 min): 177 ng/mL
concentration SYS, individual (IV 0.75 mg/kg, 30 min): 177 ng/mL
concentration PV, Mean (IV 0.75 mg/kg, 60 min): 83 ng/mL
concentration SYS, Mean (IV 0.75 mg/kg, 60 min): 98 ng/mL
concentration PV, individual [4]: 95.1 ng/mL and 65.8 ng/mL and 89.1 ng/mL
concentration SYS, individual [4]: 102 ng/mL (2×) and 89.1 ng/mL
concentration PV, Mean (IV 0.75 mg/kg, 120 min): 28 ng/mL
concentration SYS, Mean (IV 0.75 mg/kg, 120 min): 39 ng/mL
concentration PV, individual [5]: 21.1 ng/mL and 34 ng/mL
concentration SYS, individual [5]: 40.6 ng/mL and 35.2 ng/mL and 41 ng/mL
concentration PV, Mean (IV 0.75 mg/kg, 180 min): 14 ng/mL
concentration PV, individual (IV 0.75 mg/kg, 180 min): 13.9 ng/mL
concentration SYS, Mean (IV 0.75 mg/kg, 180 min): 15 ng/mL
concentration SYS, individual (IV 0.75 mg/kg, 180 min, 0.75 mg/kg): 15 ng/mL and 13.9 ng/mL and 15.7 ng/mL
concentration PV, Mean (IV 0.75 mg/kg, 240 min): 5 ng/mL
concentration SYS, Mean (IV 0.75 mg/kg, 240 min): 6 ng/mL
concentration PV, individual [6]: 4.87 ng/mL and 5.76 ng/mL
concentration SYS, individual [6]: 5.9 ng/mL and 6.21 ng/mL and 6.31 ng/mL
concentration PV, Mean (IV 1.5 mg/kg, 2 min): 1140 ng/mL
concentration SYS, Mean (IV 1.5 mg/kg, 2 min): 1080 ng/mL
concentration PV, individual (IV 1.5 mg/kg, 2 min, 1.5 mg/kg): 1300 ng/mL and 1130 ng/mL and 985 ng/mL
concentration SYS, individual (IV 1.5 mg/kg, 2 min, 1.5 mg/kg): 1240 ng/mL and 919 ng/mL
concentration PV, Mean (IV 1.5 mg/kg, 5 min): 652 ng/mL
concentration PV, individual (IV 1.5 mg/kg, 5 min): 652 ng/mL
concentration SYS, Mean (IV 1.5 mg/kg, 5 min): 735 ng/mL
concentration SYS, individual (IV 1.5 mg/kg, 5 min, 1.5 mg/kg): 819 ng/mL and 676 ng/mL and 711 ng/mL
concentration PV, Mean (IV 1.5 mg/kg, 15 min): 350 ng/mL
concentration SYS, Mean (IV 1.5 mg/kg, 15 min): 433 ng/mL
concentration PV, individual [7]: 352 ng/mL and 301 ng/mL and 397 ng/mL
concentration SYS, individual [7]: 443 ng/mL and 404 ng/mL and 453 ng/mL
concentration PV, Mean (IV 1.5 mg/kg, 30 min): 266 ng/mL
concentration PV, individual (IV 1.5 mg/kg, 30 min): 266 ng/mL
concentration SYS, Mean (IV 1.5 mg/kg, 30 min): 330 ng/mL
concentration SYS, individual (IV 1.5 mg/kg, 30 min, 1.5 mg/kg): 355 ng/mL and 304 ng/mL
concentration PV, Mean (IV 1.5 mg/kg, 60 min): 128 ng/mL
concentration SYS, Mean (IV 1.5 mg/kg, 60 min): 156 ng/mL
concentration PV, individual [8]: 124 ng/mL and 119 ng/mL and 141 ng/mL
concentration SYS, individual [8]: 149 ng/mL and 148 ng/mL and 171 ng/mL
concentration PV, Mean (IV 1.5 mg/kg, 120 min): 59 ng/mL
concentration SYS, Mean (IV 1.5 mg/kg, 120 min): 63 ng/mL
concentration PV, individual [9]: 60 ng/mL and 57.2 ng/mL and 58.8 ng/mL
concentration SYS, individual [9]: 62.6 ng/mL and 64.9 ng/mL and 60.3 ng/mL
concentration PV, Mean (IV 1.5 mg/kg, 180 min): 22 ng/mL
concentration SYS, Mean (IV 1.5 mg/kg, 180 min): 24 ng/mL
concentration PV, individual [10]: 22.1 ng/mL and 21.1 ng/mL
concentration SYS, individual [10]: 23.7 ng/mL and 25.3 ng/mL and 23 ng/mL
concentration SYS, individual (IV 1.5 mg/kg, 240 min, 1.5 mg/kg): 10.2 ng/mL
IV AUC0-inf, individual (IV 1.5 mg/kg, 1.5 mg/kg): 552.87 ng·h/mL and 612.34 ng·h/mL
IV AUC0-inf, individual (IV 2.5 mg/kg, 2.5 mg/kg): 896.21 ng·h/mL and 1128.11 ng·h/mL
Individual systemic Bioavailability (LSI 2.5 mg/kg): 44.48% and 51.78%
Volume (Vz) (Oral): 2.29 L/kg
clearance (Oral): 37.7 mL/min/kg
Structure (SMILES): Nc1ncn([C@H]2C[C@H](O)[C@@H](CO)O2)c(=O)n1 [decitabine, 5-aza-2′-deoxycytidine]
IV AUC0-inf, individual (IV 0.75 mg/kg, 0.75 mg/kg): 327.37 ng·h/mL and 353.53 ng·h/mL and 354.68 ng·h/mL
